Experimental data: ChEMBL document CHEMBL5136982, “Structure-Based Design of Potent, Selective, and Orally Bioavailable VPS34 Kinase Inhibitors” (J Med Chem, 2022)

Tests used:
[1] = Lipophilicity, logD of compound at pH 7.4 by shake flask method; format: physicochemical; details: buffer
[2] = Microsomal stability in human liver microsome assessed as clearance at 1.0 uM preincubated for 5 mins followed by NADPH addition measured upto 60 mins by LC-MS/MS analysis; format: ADME; details: liver microsomes, time < 65 min
[3] = Microsomal stability in rat liver microsome assessed as clearance at 1.0 uM preincubated for 5 mins followed by NADPH addition measured upto 60 mins by LC-MS/MS analysis; format: ADME; details: liver microsomes, time < 65 min
[4] = Oral bioavailability in Sprague-Dawley rat at 2 mg/kg measured upto 8 hrs by LC-MS/MS analysis; format: ADME, organism-based; details: in vivo
[5] = Unbound clearance in Sprague-Dawley rat at 0.5 mg/kg, iv measured upto 8 hrs by LC-MS/MS analysis; format: ADME, organism-based; details: in vivo
[6] = Plasma clearance in Sprague-Dawley rat at 0.5 mg/kg, iv measured upto 8 hrs by LC-MS/MS analysis; format: ADME, organism-based
[7] = Half life in Sprague-Dawley rat at 2 mg/kg, po measured upto 8 hrs by LC-MS/MS analysis; format: ADME, organism-based; details: in vivo
[8] = Volume of distribution at steady state in Sprague-Dawley rat at […] measured upto 8 hrs by LC-MS/MS analysis; format: ADME, organism-based; details: in vivo
[9] = AUC in Sprague-Dawley rat at 0.5 mg/kg, iv measured upto 8 hrs by LC-MS/MS analysis; format: ADME, organism-based; parameters: dose 0.5 mg/kg, time < 8 hrs, route iv; details: in vivo

| logD [1] | CLhep predicted at 1 µM [2] [mL/min/kg] | CLhep predicted at 1 µM [3] [mL/min/kg] | bioavailability [4] [%] | CL free [5] [mL/min/kg] | clearance [6] [mL/min/kg] | half-life [7] [h] | Vdss [8] [L/kg] | AUC at 8 h [9] [µM·h] | SMILES |
| --- | --- | --- | --- | --- | --- | --- | --- | --- | --- |
| 0.8 | < 3.9 | 8.5 |  |  |  |  |  |  | C[C@@H]1COCCN1c1cc2n(n1)[C@H](C(F)(F)F)CNC2=O |
| 1.2 | < 3.9 | 12 | 68 | 19 |  |  |  |  | CC(C)[C@@H]1CNC(=O)c2cc(N3CCOC[C@H]3C)nn21 |
| 1.5 | < 3.9 | < 6.1 |  |  |  |  |  |  | C[C@@H]1COCCN1c1cc2n(n1)[C@H](C1CC1)C(C)(C)NC2=O |
| 1.4 | 4.7 | 24 |  |  |  |  |  |  | C[C@@H]1COCCN1c1cc2n(n1)[C@H](C(C)(C)C)CNC2=O |
| 1.7 | < 3.9 | < 6.1 |  |  |  |  |  |  | C[C@@H]1COCCN1c1cc2n(n1)[C@H](C1CC1)[C@H](C1CC1)NC2=O |
| 1.5 | < 3.9 | 23 |  |  |  |  |  |  | C[C@@H]1COCCN1c1cc2n(n1)[C@H](C1CCC1)CNC2=O |
| 1 | < 3.9 | < 6.1 | 61 |  | 7.8 | 1.4 | 0.83 | 4 | C[C@@H]1COCCN1c1cc2n(n1)[C@@H]1CCC[C@@H]1NC2=O |
| 1.3 | < 3.9 | 7.8 |  |  |  |  |  |  | C[C@@H]1NC(=O)c2cc(N3CCOC[C@H]3C)nn2[C@@H]1C1CC1 |
|  | < 3.9 | < 6.1 |  |  |  |  |  |  | C[C@@H]1COCCN1c1cc2n(n1)C(C(C)(C)O)CNC2=O (single isomer, unassigned) |
| 1.6 | < 3.9 | 11 |  |  |  |  |  |  | C[C@@H]1COCCN1c1cc2n(n1)[C@H](C1CC1)C1(CC1)NC2=O |
| 1.6 | 9.1 | 28 |  |  |  |  |  |  | C[C@@H]1COCCN1c1cc2n(n1)[C@H](C1CCCC1)CNC2=O |
| 1 | < 3.9 | 11 |  |  |  |  |  |  | C[C@@H]1COCCN1c1cc2n(n1)[C@H](C1CC1)CNC2=O |

The remaining lines, values behind:

| SMILES | logD [1] | CLhep predicted at 1 µM [2] [mL/min/kg] | CLhep predicted at 1 µM [3] [mL/min/kg] | bioavailability [4] [%] | CL free [5] [mL/min/kg] | clearance [6] [mL/min/kg] | half-life [7] [h] | Vdss [8] [L/kg] | AUC at 8 h [9] [µM·h] |
| --- | --- | --- | --- | --- | --- | --- | --- | --- | --- |
| Cc1cnc(NC(=O)C2CC2)cc1-c1cc2n(n1)[C@H](C(C)C)CNC2=O | 2.5 | 11 | 25 |  |  |  |  |  |  |
| Cn1ccc(-c2ccnc(NC(=O)C3CC3)c2)cc1=O | 1.3 | 6.4 | < 6.1 |  |  |  |  |  |  |
| O=C(Nc1cc(-n2cnc3ccccc32)ccn1)C1CC1 | 2.8 | 19 | 34 |  |  |  |  |  |  |
| CC(C)[C@@H]1CNC(=O)c2cc(-c3ccnc(NC(=O)C4CC4)c3)nn21 | 2.4 | < 3.9 | 22 |  |  |  |  |  |  |
| C[C@@H]1COCCN1c1cc2n(n1)C[C@H](C(F)(F)F)NC2=O | 1.1 | < 3.9 | < 6.1 |  |  |  |  |  |  |
| O=C(Nc1cc2cc(-c3nncn3-c3ccccc3Cl)ccc2cn1)C1CC1F (configuration not stated) | 3.1 | 12 | 7.2 |  |  |  |  |  |  |
| CC(C)[C@@H]1CNC(=O)c2cc(N3CCOCC3)nn21 | 0.7 | < 3.9 | < 6.1 |  |  |  |  |  |  |
| C[C@@H]1CNC(=O)c2cc(-c3ccnc(NC(=O)C4CC4)c3)nn21 | 1.7 | < 3.9 | < 6.1 |  |  |  |  |  |  |
| NC(=O)c1ccccc1Nc1ccnc(NC(=O)C2CC2)c1 | 1.8 | 5 | 15 |  |  |  |  |  |  |
| O=C(Nc1cc(-c2ccn3ccnc3c2)ccn1)C1CC1 | 2.1 | 17 | 40 |  |  |  |  |  |  |
